In this experiment the test system is tyrosinase de champignons. Kind of experiment: in vitro inhibition test of tyrosinase activity (dopachrome formation followed at 475 nm). The format is biochemical. The note with it: lowering of maximal dopachrome formed (OD 475 nm at plateau) vs. no inhibitor; inhibitor at 50 % molaire relative to tyrosine; pH = 6,5; 25°C. The source says: Certains des composés de formule générale (I) ont été étudiés comparativement à l'hydroquinone à quantité molaire équivalente dans le test d'inhibition in vitro de l'activité de la tyrosinase.
Selon ce test on suit par spectrométrie visible à 475 nm la quantité de dopachrome formée au cours de la chaîne de réactions de transformation de la tyrosine en mélanines. Ces réactions sont catalysées in vitro par la tyrosinase de champignons, en présence d'un co-substrat réducteur (par exemple la L-dopa en petite quantité) pour initier la réaction d'hydroxylation de la L-tyrosine en L-dopa, laquelle est ensuite oxydée catalytiquement en dopaquinone puis en dopachrome, produit intermédiaire avant les réactions d'oxydation non enzymatiques aboutissant à la formation des mélanines.
On mesure donc la concentration en dopachrome formé au cours du temps en présence et en absence de l'inhibiteur. […]
On exprime l'effet d'inhibition par l'abaissement de la quantité maximale de dopachrome formée (valeur de densité optique à 475 nm lue au plateau de la courbe) par rapport à la quantité obtenue en l'absence d'inhibiteur. […]
• cuve de référence : 3 ml de A • cuve d'essai : 1 ml de B 0,1 ml de C 1,85ml de A + E • homogénéiser et équilibrer à 25°C • ajouter 0,05 ml de D • mélanger rapidement et observer la cinétique par la mesure de l'absorbance à 475 nm en fonction du temps.

As to `Oc1ccc(O)cc1` [hydroquinone], the “% d'inhibition” value is given as -33%.
